# Experimental data from ChEMBL document CHEMBL1909046, “DrugMatrix in vitro pharmacology data”.
# Tests used:
# [1] = DRUGMATRIX: Sodium/nucleoside co-transporter radioligand binding (ligand: nitrobenzylthioinosine); assay type: cell membranes, Cavia porcellus, Dunkin-Hartley, Cerebral cortex, Membrane; conditions: Not Active = under 50% inhibition at 10 µM
# [2] = biological target: T1, Calcitonin receptor (Homo sapiens, UniProt P30988); assay type: cell membranes, Membrane; conditions: t47d; note: in other assays of this panel Not Active means under 50% inhibition at 10 µM
# T1 sequence (P30988 whole entry): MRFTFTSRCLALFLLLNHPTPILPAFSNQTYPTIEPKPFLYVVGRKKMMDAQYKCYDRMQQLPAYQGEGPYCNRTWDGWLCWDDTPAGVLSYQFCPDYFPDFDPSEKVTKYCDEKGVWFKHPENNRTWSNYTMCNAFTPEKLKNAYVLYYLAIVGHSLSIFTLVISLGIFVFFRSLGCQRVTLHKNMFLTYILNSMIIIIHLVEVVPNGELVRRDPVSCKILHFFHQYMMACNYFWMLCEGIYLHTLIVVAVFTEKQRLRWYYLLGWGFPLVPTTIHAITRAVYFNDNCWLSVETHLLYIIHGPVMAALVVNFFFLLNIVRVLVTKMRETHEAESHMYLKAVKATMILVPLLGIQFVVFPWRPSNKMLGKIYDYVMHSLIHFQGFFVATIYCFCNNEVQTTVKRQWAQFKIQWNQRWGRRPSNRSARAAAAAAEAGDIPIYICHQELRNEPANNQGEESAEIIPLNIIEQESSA
# [3] = DRUGMATRIX: Serotonin (5-Hydroxytryptamine) 5-HT3 radioligand binding (ligand: [3H] GR-65630); assay type: cell membranes, Membrane; conditions: hek293; Not Active = under 50% inhibition at 10 µM
# [4] = biological target: 5-hydroxytryptamine receptor 4 (Cavia porcellus, UniProt O70528); assay type: cell membranes, Dunkin-Hartley, Striatum, Membrane; note: in other assays of this panel Not Active means under 50% inhibition at 10 µM
# 5-hydroxytryptamine receptor 4, sequence (O70528 whole entry): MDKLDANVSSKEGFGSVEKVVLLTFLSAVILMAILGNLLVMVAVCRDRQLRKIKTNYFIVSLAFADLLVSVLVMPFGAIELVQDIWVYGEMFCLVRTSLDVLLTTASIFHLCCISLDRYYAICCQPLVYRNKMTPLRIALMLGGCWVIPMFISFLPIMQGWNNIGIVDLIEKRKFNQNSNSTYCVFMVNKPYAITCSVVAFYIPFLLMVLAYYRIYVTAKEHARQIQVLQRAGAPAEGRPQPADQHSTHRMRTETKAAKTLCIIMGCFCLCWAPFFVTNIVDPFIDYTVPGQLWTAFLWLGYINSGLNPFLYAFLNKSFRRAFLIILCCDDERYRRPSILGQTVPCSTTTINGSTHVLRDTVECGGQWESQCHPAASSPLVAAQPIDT
# [5] = DRUGMATRIX: Sigma2 radioligand binding (ligand: [3H] Ifenprodil); assay type: cell membranes, Rattus norvegicus, Wistar, Brain, Membrane; conditions: Not Active = under 50% inhibition at 10 µM
# [6] = biological target: T2, C-X-C chemokine receptor type 1 (Homo sapiens, UniProt P25024); note: in other assays of this panel Not Active means under 50% inhibition at 10 µM
# T2 sequence (P25024 whole entry): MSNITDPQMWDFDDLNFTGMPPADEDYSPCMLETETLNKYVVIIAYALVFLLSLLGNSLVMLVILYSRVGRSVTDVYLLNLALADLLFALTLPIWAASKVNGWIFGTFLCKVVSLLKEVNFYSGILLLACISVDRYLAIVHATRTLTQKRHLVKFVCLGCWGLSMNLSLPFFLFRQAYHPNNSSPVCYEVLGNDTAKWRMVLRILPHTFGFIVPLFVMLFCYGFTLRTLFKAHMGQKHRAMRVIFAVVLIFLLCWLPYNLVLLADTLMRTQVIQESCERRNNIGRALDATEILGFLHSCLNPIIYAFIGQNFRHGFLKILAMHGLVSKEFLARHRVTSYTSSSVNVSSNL
# [7] = biological target: D(1A) dopamine receptor (Homo sapiens, UniProt P21728); test: DRUGMATRIX: Dopamine D1 radioligand binding (ligand: [3H] SCH-23390); assay type: cell membranes, CHO, Membrane; conditions: cho, Not Active = under 50% inhibition at 10 µM
# D(1A) dopamine receptor, sequence (P21728 whole entry): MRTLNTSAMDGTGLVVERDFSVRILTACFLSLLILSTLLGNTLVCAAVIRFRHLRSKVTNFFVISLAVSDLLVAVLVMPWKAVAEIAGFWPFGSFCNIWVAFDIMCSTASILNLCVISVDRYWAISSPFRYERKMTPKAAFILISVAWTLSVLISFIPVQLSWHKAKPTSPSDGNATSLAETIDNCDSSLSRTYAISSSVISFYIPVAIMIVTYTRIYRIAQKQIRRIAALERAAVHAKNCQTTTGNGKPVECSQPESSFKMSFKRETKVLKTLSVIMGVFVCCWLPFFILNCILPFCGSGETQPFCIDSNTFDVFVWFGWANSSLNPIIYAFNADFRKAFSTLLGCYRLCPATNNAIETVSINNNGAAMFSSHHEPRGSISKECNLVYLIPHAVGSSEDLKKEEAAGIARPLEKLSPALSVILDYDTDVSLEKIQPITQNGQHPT
# [8] = biological target: Sodium-dependent dopamine transporter (Homo sapiens, UniProt Q01959); test: DRUGMATRIX: Dopamine Transporter radioligand binding (ligand: [125I] RTI-55); assay type: cell membranes, CHO-K1, Membrane; conditions: cho-k1, Not Active = under 50% inhibition at 10 µM
# Sodium-dependent dopamine transporter, sequence (Q01959 whole entry): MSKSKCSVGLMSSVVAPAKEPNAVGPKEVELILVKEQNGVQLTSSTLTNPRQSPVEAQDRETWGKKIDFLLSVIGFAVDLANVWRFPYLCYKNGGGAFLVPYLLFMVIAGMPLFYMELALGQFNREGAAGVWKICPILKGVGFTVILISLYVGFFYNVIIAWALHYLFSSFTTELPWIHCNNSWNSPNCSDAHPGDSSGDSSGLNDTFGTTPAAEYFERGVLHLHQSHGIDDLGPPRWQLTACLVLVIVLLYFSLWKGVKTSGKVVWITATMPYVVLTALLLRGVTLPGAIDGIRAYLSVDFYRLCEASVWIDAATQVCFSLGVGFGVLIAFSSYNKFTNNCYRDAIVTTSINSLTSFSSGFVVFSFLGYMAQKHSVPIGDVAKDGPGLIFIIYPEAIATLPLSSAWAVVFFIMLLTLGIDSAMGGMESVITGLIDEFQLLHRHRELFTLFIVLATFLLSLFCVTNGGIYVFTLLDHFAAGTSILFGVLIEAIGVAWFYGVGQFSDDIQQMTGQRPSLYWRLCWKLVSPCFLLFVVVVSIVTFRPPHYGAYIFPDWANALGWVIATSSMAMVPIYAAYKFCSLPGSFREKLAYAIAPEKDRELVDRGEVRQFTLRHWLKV
# [9] = DRUGMATRIX: GABAA, Muscimol, Central radioligand binding (ligand: [3H] Muscimol); assay type: cell membranes, Rattus norvegicus, Wistar, Brain, Membrane; conditions: Not Active = under 50% inhibition at 10 µM
# [10] = DRUGMATRIX: Glutamate, AMPA radioligand binding (ligand: [3H] AMPA); assay type: cell membranes, Rattus norvegicus, Wistar, Cerebral cortex, Membrane; conditions: Not Active = under 50% inhibition at 10 µM
# [11] = DRUGMATRIX: Glutamate, NMDA, Phencyclidine radioligand binding (ligand: [3H] TCP); assay type: cell membranes, Rattus norvegicus, Wistar, Cerebral cortex, Membrane; conditions: Not Active = under 50% inhibition at 10 µM
# [12] = biological target: Insulin receptor (Rattus norvegicus, UniProt P15127); assay type: cell membranes, Wistar, Liver, Membrane; note: in other assays of this panel Not Active means under 50% inhibition at 10 µM
# Insulin receptor, sequence (P15127 27-759 limits assumed): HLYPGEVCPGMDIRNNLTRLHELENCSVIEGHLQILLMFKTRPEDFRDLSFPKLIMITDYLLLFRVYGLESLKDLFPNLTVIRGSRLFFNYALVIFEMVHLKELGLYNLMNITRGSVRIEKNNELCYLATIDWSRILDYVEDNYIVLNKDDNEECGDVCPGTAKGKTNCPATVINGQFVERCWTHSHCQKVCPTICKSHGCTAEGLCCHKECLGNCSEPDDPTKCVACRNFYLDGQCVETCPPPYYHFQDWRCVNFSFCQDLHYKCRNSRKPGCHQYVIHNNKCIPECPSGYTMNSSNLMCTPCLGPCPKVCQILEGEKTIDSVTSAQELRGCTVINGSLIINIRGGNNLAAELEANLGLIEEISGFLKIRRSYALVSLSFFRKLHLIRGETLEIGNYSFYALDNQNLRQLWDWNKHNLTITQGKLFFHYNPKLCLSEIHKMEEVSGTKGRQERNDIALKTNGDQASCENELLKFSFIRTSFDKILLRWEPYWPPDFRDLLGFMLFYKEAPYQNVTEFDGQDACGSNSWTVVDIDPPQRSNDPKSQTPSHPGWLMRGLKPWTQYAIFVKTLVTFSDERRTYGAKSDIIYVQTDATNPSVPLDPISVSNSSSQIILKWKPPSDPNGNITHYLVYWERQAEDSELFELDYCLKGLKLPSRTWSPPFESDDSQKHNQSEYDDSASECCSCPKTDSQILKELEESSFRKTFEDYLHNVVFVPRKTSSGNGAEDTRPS
# Insulin receptor, sequence (P15127 764-1383 limits assumed): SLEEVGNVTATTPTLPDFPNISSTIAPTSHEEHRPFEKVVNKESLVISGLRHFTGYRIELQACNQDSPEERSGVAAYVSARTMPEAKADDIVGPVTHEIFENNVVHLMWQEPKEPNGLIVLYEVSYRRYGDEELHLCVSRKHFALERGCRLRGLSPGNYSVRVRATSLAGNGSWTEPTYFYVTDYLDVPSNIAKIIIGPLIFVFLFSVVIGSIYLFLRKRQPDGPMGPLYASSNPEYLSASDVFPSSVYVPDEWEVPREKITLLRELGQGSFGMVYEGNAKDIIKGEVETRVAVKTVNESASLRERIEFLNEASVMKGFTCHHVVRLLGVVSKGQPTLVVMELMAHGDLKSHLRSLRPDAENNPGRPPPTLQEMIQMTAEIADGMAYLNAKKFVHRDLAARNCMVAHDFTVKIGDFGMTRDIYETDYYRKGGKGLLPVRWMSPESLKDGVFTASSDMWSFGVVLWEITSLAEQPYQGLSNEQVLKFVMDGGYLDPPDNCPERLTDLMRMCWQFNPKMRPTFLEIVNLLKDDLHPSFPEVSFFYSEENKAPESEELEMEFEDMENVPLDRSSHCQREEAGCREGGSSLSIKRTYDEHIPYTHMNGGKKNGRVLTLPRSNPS
# [13] = biological target: T3, Muscarinic acetylcholine receptor M4 (Homo sapiens, UniProt P08173); assay type: cell membranes, CHO-K1, Membrane; note: in other assays of this panel Not Active means under 50% inhibition at 10 µM
# T3 sequence (P08173 whole entry): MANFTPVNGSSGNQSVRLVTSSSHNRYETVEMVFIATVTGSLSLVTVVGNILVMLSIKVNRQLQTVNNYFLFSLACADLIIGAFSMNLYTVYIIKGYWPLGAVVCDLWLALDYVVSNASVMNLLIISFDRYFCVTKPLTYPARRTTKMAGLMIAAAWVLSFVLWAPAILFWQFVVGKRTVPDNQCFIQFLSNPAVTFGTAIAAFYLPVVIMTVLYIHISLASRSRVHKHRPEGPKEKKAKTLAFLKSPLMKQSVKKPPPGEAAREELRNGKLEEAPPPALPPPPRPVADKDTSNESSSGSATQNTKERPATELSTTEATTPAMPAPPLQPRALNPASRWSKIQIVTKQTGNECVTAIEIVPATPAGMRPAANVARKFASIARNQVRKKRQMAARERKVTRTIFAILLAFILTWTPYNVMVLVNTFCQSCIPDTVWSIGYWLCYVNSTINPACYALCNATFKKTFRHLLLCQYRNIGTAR
# [14] = DRUGMATRIX: Phorbol Ester radioligand binding (ligand: [3H] PDBu); assay type: cell membranes, Mus musculus, ICR, Brain, Membrane; conditions: Not Active = under 50% inhibition at 10 µM
# [15] = biological target: cGMP-specific 3',5'-cyclic phosphodiesterase (Homo sapiens, UniProt O76074); test: DRUGMATRIX: Phosphodiesterase PDE5 enzyme inhibition (substrate: [3H]cGMP + cGMP); assay type: tissue-based, Platelet; conditions: platelet; Not Active = under 50% inhibition at 10 µM
# [16] = biological target: T4, Neutrophil elastase (Homo sapiens, UniProt P08246); assay type: tissue-based
# T4 sequence (P08246 whole entry): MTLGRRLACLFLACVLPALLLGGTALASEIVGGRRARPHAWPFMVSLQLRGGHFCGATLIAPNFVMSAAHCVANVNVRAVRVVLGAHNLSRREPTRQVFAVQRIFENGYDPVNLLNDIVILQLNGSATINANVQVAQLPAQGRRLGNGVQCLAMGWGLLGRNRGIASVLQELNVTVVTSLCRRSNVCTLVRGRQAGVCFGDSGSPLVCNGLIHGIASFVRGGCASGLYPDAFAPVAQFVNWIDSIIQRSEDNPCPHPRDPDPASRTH
# [17] = biological target: Mitogen-activated protein kinase 1 (Homo sapiens, UniProt P28482); test: DRUGMATRIX: Protein Serine/Threonine Kinase, ERK2 enzyme inhibition (substrate: Myelin Basic Protein); design: species or system Escherichia coli; conditions: Not Active = under 50% inhibition at 10 µM
# Mitogen-activated protein kinase 1, sequence (P28482 whole entry): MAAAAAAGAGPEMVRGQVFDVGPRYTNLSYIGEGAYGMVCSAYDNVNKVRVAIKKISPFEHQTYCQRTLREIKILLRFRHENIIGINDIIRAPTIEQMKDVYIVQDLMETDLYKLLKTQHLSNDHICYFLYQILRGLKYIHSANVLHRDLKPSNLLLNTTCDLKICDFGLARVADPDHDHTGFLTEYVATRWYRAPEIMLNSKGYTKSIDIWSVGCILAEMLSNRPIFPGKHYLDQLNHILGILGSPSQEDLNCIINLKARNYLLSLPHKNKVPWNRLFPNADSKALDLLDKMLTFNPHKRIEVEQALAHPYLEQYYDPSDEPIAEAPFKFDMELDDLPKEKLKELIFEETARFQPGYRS
# [18] = biological target: Mitogen-activated protein kinase 14 (Homo sapiens, UniProt Q16539); design: species or system Escherichia coli
# Mitogen-activated protein kinase 14, sequence (Q16539 whole entry): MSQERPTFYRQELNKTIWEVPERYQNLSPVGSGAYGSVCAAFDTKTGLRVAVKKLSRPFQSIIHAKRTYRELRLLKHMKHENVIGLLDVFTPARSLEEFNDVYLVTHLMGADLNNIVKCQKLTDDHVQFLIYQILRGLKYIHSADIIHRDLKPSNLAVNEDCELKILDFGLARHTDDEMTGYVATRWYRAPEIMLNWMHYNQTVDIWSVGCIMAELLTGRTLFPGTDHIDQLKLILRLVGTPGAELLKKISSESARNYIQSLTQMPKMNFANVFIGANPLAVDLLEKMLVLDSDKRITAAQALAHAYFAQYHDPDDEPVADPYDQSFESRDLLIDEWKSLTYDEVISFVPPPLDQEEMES
# [19] = biological target: Protein phosphatase 3 catalytic subunit alpha (Homo sapiens, UniProt Q08209); design: species or system Escherichia coli
# [20] = biological target: Tyrosine-protein kinase Fyn (Homo sapiens, UniProt P06241); test: biochemical; assay type: cell-based, Insect cells
# Tyrosine-protein kinase Fyn, sequence (P06241 whole entry): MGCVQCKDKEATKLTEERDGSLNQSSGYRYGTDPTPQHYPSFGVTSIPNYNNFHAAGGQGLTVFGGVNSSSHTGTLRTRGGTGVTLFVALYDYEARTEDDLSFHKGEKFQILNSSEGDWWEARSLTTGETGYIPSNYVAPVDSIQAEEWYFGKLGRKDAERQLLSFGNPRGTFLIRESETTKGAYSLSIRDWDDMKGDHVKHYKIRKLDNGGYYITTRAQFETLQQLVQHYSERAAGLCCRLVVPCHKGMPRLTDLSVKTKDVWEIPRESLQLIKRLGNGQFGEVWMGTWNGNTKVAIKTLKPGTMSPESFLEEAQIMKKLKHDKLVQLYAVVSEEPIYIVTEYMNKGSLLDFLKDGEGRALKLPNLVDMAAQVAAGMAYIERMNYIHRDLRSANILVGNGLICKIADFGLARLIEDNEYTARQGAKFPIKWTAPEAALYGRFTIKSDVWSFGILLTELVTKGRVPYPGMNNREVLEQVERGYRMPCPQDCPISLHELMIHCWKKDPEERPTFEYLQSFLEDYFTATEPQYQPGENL
Compound,IC50 [1],Ki [1],IC50 [2],IC50 [3],Ki [3],IC50 [4],IC50 [5],Ki [5],IC50 [6],IC50 [9],Ki [9],IC50 [10],Ki [10],IC50 [11],Ki [11],IC50 [12],IC50 [14],Ki [14],IC50 [15],IC50 [16],further results
IVERMECTIN,Not Active,Not Active,Not Active,Not Active,Not Active,Not Active,Not Active,Not Active,Not Active,Not Active,Not Active,Not Active,Not Active,Not Active,Not Active,Not Active,Not Active,Not Active,Not Active,Not Active,Ki [2]: Not Active; Ki [4]: Not Active; Ki [6]: Not Active; IC50 ([7]; read-out: IC50): 4510 nM; Ki ([7]; read-out: Ki): 2260 nM; IC50 ([8]; read-out: IC50): 4460 nM; Ki ([8]; read-out: Ki): 3540 nM; Ki [12]: Not Active; IC50 ([13]; cho-k1): Not Active; Ki ([13]; cho-k1): Not Active; Ki [15]: Not Active; Ki [16]: Not Active; IC50 [17]: Not Active; Ki [17]: Not Active; IC50 [18]: Not Active; Ki [18]: Not Active; IC50 [19]: Not Active; Ki [19]: Not Active; IC50 ([20]; insect cells): Not Active; Ki ([20]; insect cells): Not Active
CO[C@@H]1[C@@H](O[C@@H]2O[C@H](C)[C@@H](O[C@H]3C[C@@](C)(O)[C@@H](OC(=O)CC(C)C)[C@H](C)O3)[C@H](N(C)C)[C@H]2O)[C@@H](CC=O)C[C@@H](C)[C@@H](O)/C=C/C=C/C[C@@H](C)OC(=O)C[C@H]1O [KITASAMYCIN],Not Active,Not Active,Not Active,Not Active,Not Active,Not Active,Not Active,Not Active,Not Active,Not Active,Not Active,Not Active,Not Active,Not Active,Not Active,Not Active,Not Active,Not Active,Not Active,Not Active,IC50 [7]: Not Active; IC50 [8]: Not Active; IC50 ([13]; cho-k1): Not Active; IC50 [17]: Not Active; IC50 [18]: Not Active; IC50 [19]: Not Active; IC50 ([20]; insect cells): Not Active
CN(N=O)C(=O)N[C@@H](C=O)[C@@H](O)[C@H](O)[C@H](O)CO [STREPTOZOCIN],Not Active,Not Active,Not Active,Not Active,Not Active,Not Active,Not Active,Not Active,Not Active,Not Active,Not Active,Not Active,Not Active,Not Active,Not Active,Not Active,Not Active,Not Active,Not Active,Not Active,IC50 [7]: Not Active; IC50 [8]: Not Active; IC50 ([13]; cho-k1): Not Active; IC50 [17]: Not Active; IC50 [18]: Not Active; IC50 [19]: Not Active; IC50 ([20]; insect cells): Not Active
CC(C)(C)NCC(O)c1cc(O)cc(O)c1 (centres undefined) [TERBUTALINE],Not Active,Not Active,Not Active,Not Active,Not Active,Not Active,Not Active,Not Active,Not Active,Not Active,Not Active,Not Active,Not Active,Not Active,Not Active,Not Active,Not Active,Not Active,Not Active,Not Active,IC50 [7]: Not Active; IC50 [8]: Not Active; IC50 ([13]; cho-k1): Not Active; IC50 [17]: Not Active; IC50 [18]: Not Active; IC50 [19]: Not Active; IC50 ([20]; insect cells): Not Active
O=C1c2c(O)ccc(O)c2C(=O)c2c(NCCNCCO)ccc(NCCNCCO)c21 [MITOXANTRONE],Not Active,Not Active,Not Active,Not Active,Not Active,Not Active,Not Active,Not Active,Not Active,Not Active,Not Active,Not Active,Not Active,Not Active,Not Active,Not Active,Not Active,Not Active,Not Active,Not Active,IC50 [7]: Not Active; IC50 [8]: Not Active; IC50 ([13]; read-out: IC50): 644 nM; Ki ([13]; read-out: Ki): 89.8 nM; IC50 [17]: Not Active; IC50 [18]: Not Active; IC50 [19]: Not Active; IC50 ([20]; read-out: IC50): 1260 nM
